According to patent US5106835A, “Renin inhibitors” (American Cyanamid Company, priority 1990, dated 1992):

Target: T1, human kidney renin (Homo sapiens, UniProt P00797)
T1 construct: Human renin was prepared from human kidney; from tissue; host or cells: human kidney
T1 sequence (P00797 67-406): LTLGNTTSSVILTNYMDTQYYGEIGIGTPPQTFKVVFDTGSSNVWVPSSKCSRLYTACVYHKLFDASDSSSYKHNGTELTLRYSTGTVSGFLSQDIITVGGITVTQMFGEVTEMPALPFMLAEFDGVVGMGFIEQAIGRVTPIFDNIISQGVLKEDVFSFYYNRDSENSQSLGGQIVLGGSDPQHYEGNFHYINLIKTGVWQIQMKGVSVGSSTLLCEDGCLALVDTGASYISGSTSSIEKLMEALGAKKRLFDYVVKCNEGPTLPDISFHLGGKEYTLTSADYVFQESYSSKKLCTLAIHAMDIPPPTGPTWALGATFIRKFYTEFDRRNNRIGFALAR
Assay: Radioimmunoassay screen for renin inhibitors (angiotensin I generation, then quantitation by radioimmunoassay)
Assay type: biochemical
Details: for IC50: human kidney renin, purified human plasma angiotensinogen, maleate buffer pH 6.0, 1 hour at 37° C., read-out: IC50 Molar Concentration
Protocol: Radioimmunoassay Screen For Renin Inhibitors
The in vitro method for the screening of anti-renin compounds involves, first, angiotensin I generation, and second, the quantitation of the angiotensin I produced by radioimmunoassay.
The incubation medium consisted of 20 μl of purified human plasma angiotensinogen (1); 40 μl of human kidney renin (2); 5 μl of phenylmethylsulfonyl fluoride; 10 μl of disodium EDTA (10 mM); 10 μl of antirenin compound (5×10^-3, 5×10^-4, 5×10^-5) in dimethylformamide, or ethanol and a suitable amount of maleate buffer (77mM, pH 6.0) to make a final volume of 500 μl. The reaction mixture was incubated for 1 hour at 37° C. and the enzymatic reaction was stopped by placing the tube in ice-cold water. The angiotension I generated during the incubation was measured by a radioimmunoassay plasma renin activity kit (Clinical Assays, Inc.).
Radioimmunoassay Procedure
The incubation medium consisted of either 100 μl aliquots of the above reaction mixture or a standard amount of angiotensin I; 1000 μl of phosphate buffer (100 mM, pH7.6) and 100 μl of (^125 I)angiotensin in a gamma-coat, tube. After three hours of incubation at room temperature, the tubes were decanted, and the radioactivity of each tube was determined in a gamma counter. Duplicate determinations were performed for each incubation. The results were expressed in ng of angiotensin I generated per ml of generation medium per hour of incubation (ng/AI/ml/hr), and the % of inhibition was obtained by the following: % inhibition= [formula]
The results of this test on representative compounds of this invention appear in Table I, expressed as an IC50.
(1) The human plasma angiotensinogen derived from the blood of a person receiving oral contraceptive pills was purified by chromatography on a pepstatin-aminohexyl-agarose column.
(2) Human renin was prepared from human kidney.

SMILES	IC50	also measured
CC(C)C[C@@H](C=O)NC(=O)C(NC(=O)[C@H](Cc1ccccc1)NC(=O)OCc1ccccc1)OC(C)C (stereo partly drawn) [N-[(Phenylmethoxy)carbonyl]-L-phenylalanyl-N-(S)-1-formyl-3-methylbutyl]-L-2-(1-methylethoxy)glycinamide]	10000 nM	
CC(C)COC(NC(=O)[C@H](Cc1ccccc1)NC(=O)OCc1ccccc1)C(=O)N[C@H](C=O)Cc1ccccc1 (stereo partly drawn) [N-[(Phenylmethoxy)carbonyl]-L-phenylalanyl-N-[(S)-1-formyl-2-phenylethyl]-L-2-(2-methylpropoxy)glycinamide]		% Renin Inhibition (Molar Concentration 1 × 10^-4): 66%; % Renin Inhibition (Molar Concentration 1 × 10^-5): 59%
CC(C)CO[C@H](NC(=O)[C@H](Cc1ccccc1)NC(=O)OCc1ccccc1)C(=O)N[C@H](C=O)CC(C)C [N-[(Phenylmethoxy)carbonyl]-L-phenylalanyl-N-[(S)-1-formyl-3-methylbutyl]-L-2-(2-methylpropoxy)glycinamide]		% Renin Inhibition (Molar Concentration 1 × 10^-4): 70%; % Renin Inhibition (Molar Concentration 1 × 10^-5): 50%
CC(C)COC(NC(=O)[C@H](Cc1ccccc1)NC(=O)OCc1ccccc1)C(=O)N[C@@H](CC1CCCCC1)[C@@H](O)c1nccs1 (stereo partly drawn) [N-[(Phenylmethoxy)carbonyl]-phenylalanyl-L-2-(2-methylpropox] [N-[(Phenylmethoxy)carbonyl]-L-phenylalanyl-L-2-(2-methylpropoxy)glycyl]-(1R,2S)-2-amino-3-cyclohexyl-1-(2-thiazolyl)propan-1-ol]	87 nM	
CC(C)CO[C@@H](NC(=O)[C@H](Cc1ccccc1)NC(=O)OCc1ccccc1)C(=O)N[C@@H](Cc1ccccc1)[C@@H](O)c1nccs1 [N-[N-(Benzyloxycarbonyl)-L-phenylalanyl-D-2-(2-methylpropoxy)glycyl]-(S)2-amino-3-phenyl-(R)1-(2-thiazoly)propan-1-ol]		% Renin Inhibition (Molar Concentration 1 × 10^-4): 74.6%; % Renin Inhibition (Molar Concentration 1 × 10^-5): 69.2%; % Renin Inhibition (Molar Concentration 1 × 10^-6): 41.0%
CC(C)C[C@H](NC(=O)C(NC(=O)[C@H](Cc1ccccc1)NC(=O)OCc1ccccc1)OC(C)C)[C@@H](O)c1nccs1 (stereo partly drawn) [N-[N-(Benzyloxycarbonyl)-L-phenylalanyl-L-2-(1-methylethoxy)glycyl]-(S)2-amino-4-methyl-(R)1-(2-thiazolyl)pentan-1-ol]	280 nM	
CC(C)COC(NC(=O)[C@H](Cc1ccccc1)NC(=O)OCc1ccccc1)C(=O)N[C@@H](CC(C)C)[C@@H](O)c1ncnn1C (stereo partly drawn) [N-[N-(Benzyloxycarbonyl)-L-phenylalanyl-L-2-(2-methylpropoxy)glycl]-(S)2-amino-4-methyl(R)1-(1-methyl-1H-1,2,4-triazol-5-yl)pentan-1-ol]		% Renin Inhibition (Molar Concentration 1 × 10^-4): 32%
CC(C)CO[C@H](NC(=O)[C@H](Cc1ccccc1)NC(=O)OCc1ccccc1)C(=O)N[C@@H](Cc1ccccc1)[C@@H](O)c1nccs1 [N-[N-(Benzyloxycarbonyl)-L-phenylalanyl-L-2-(2-methylpropxy)glycyl]-(S)2-amino-3-phenyl-(R)1-(2-thiazolyl)propan-1-ol]	470 nM	% Renin Inhibition (Molar Concentration 1 × 10^-4): 85.0%; % Renin Inhibition (Molar Concentration 1 × 10^-5): 84.6%; % Renin Inhibition (Molar Concentration 1 × 10^-6): 76.2%
CC(C)C[C@H](NC(=O)C(NC(=O)[C@H](Cc1ccccc1)NC(=O)OCc1ccccc1)OC1CCCCC1)[C@@H](O)c1nccs1 (stereo partly drawn) [N-[N-(Benzyloxycarbonyl)-L-phenylalanyl-L-2-(cyclohexyloxy)glycyl]-(S)2-amino-4-methyl-(R)1-(2-thiazolyl)pentan-1-ol]	8500 nM	
CC(C)COC(NC(=O)OCc1ccccc1)C(=O)N[C@@H](CC1CCCCC1)[C@@H](O)c1ccccn1 (stereo partly drawn) [N-[N-(Phenylmethoxy)carbonyl-L-2-(2-methylpropoxy)glycyl]-(S)2-amino-3-cyclohexyl(R)1-(2-pyridinyl)propan-1-ol]	160 nM	
CC(C)C[C@H](NC(=O)[C@H](Cc1ccccc1)NC(=O)OC(C)(C)C)C(=O)N[C@@H](CC(C)C)[C@@H](O)c1cccs1 [N-[N-(tert-Butoxycarbonyl)-L-phenylalanyl-L-leucyl]-(S)2-amino-4-methyl-(R)1-(2-thienyl)-pentan-1-ol]	4500 nM	
CC(C)C[C@H](NC(=O)C(NC(=O)[C@H](Cc1ccccc1)NC(=O)OCc1ccccc1)SC(C)C)[C@@H](O)c1nccs1 (stereo partly drawn) [N-[N-[(Phenylmethoxy)carbonyl-L-phenylalanyl-L-2-(isopropylthio)glycyl]-(S)2-amino-4-methyl-(R)1-(2-thiazaolyl)pentan-1-ol]	14000 nM	
CC(C)C[C@H](NC(=O)C(NC(=O)[C@H](Cc1ccccc1)NC(=O)OCc1ccccc1)SC(C)C)[C@@H](O)c1nccs1 (stereo partly drawn) [N-[N-[(phenylmethoxy)carbonyl]-L-phenylalanyl-D-2-(isopropylthio)glycyl]-(S)2-amino-4-methyl-(R)1-(2-thiazolyl)pentan-1-ol]		% Renin Inhibition (Molar Concentration 1 × 10^-4): 25%
CC(C)C[C@H](NC(=O)[C@H](Cc1ccccc1)NC(=O)OC(C)(C)C)C(=O)N[C@@H](CC1CCCCC1)[C@@H](O)c1ccco1 [N-[N-tert-Butoxycarbonyl)-L-phenylalanyl-L-leucyl]-(S)2-amino-3-cyclohexyl-(R)1-(2-furanyl)propan-1-ol]	24 nM	

Now from value to compound, other results behind:

IC50	SMILES	also measured
8800 nM	CC(C)OC(NC(=O)[C@H](Cc1ccccc1)NC(=O)OCc1ccccc1)C(=O)N[C@@H](CC1CCCCC1)[C@@H](O)c1nccs1 (stereo partly drawn) [N-[N-(Phenylmethoxy)carbonyl-L-phenylalanyl-D-2-(1-methyleth] [N-[N-[(phenylmethoxy)carbonyl-L-phenylalanyl-D-2-(1-methylethoxy)glycyl](S)2-amino-3-cyclohexyl-(R)1-(2-thiazolyl)propan-1-ol]	
29000 nM	CC(C)CO[C@@H](NC(=O)[C@H](Cc1ccccc1)NC(=O)OCc1ccccc1)C(=O)N[C@@H](CC1CCCCC1)[C@@H](O)c1ccccn1 [N-[N-(Phenylmethoxy)carbonyl-L-phenylalanyl-D-2-(2-methylpropoxy)glycyl]-(S)2-amino-3-cyclohexyl(R)1-(2-pyridinyl)propan-1-ol]	
1 nM	CC(C)OC(NC(=O)[C@H](Cc1ccccc1)NC(=O)OCc1ccccc1)C(=O)N[C@@H](CC1CCCCC1)[C@@H](O)c1nccs1 (stereo partly drawn) [N-[N-(Phenylmethoxy)carbonyl-L-phenylalanyl-L-2-(1-methyleth] [N-[N-[(Phenylmethoxy)carbonyl-L-phenylalanyl-L-2-(1-methylethoxy)glycyl]-(S)2-amino-b 3-cyclohexyl-(R)1-(2-thiazolyl)propan-1-ol]	
46 nM	CC(C)SC(NC(=O)[C@H](Cc1ccccc1)NC(=O)OCc1ccccc1)C(=O)N[C@@H](CC1CCCCC1)[C@@H](O)c1ccccn1 (stereo partly drawn) [N-[N-(Phenylmethoxy)carbonyl-L-phenylalanyl-L-2-(isopropylth] [N-[N-[(Phenylmethoxy)carbonyl]-L-phenylalanyl-L-2-(isopropylthio)glycyl]-(S)2-amino-3-cyclohexyl-(R)1-(2-pyridinyl)propan-1-ol]	
16000 nM	CC(C)SC(NC(=O)[C@H](Cc1ccccc1)NC(=O)OCc1ccccc1)C(=O)N[C@@H](CC1CCCCC1)[C@@H](O)c1ccccn1 (stereo partly drawn) [N-[N-(phenylmethoxy)carbonyl-L-phenylalanyl-D-2-(isopropylth] [N-[N[(phenylmethoxy)carbonyl]-L-phenylalanyl-D-2-(isopropylthio)glycyl]-(S)2-amino-3-cyclohexyl-(R)1-(2-pyridinyl)-propan-1-ol]	
24 nM	CC(C)OC(NC(=O)[C@H](Cc1ccccc1)NC(=O)OCc1ccccc1)C(=O)N[C@@H](CC1CCCCC1)[C@@H](O)c1ccccn1 (stereo partly drawn) [N-[N-[ (Phenylmethoxy)carbonyl]-L-phenylalanyl-L-2-(1-methylethoxy)glycyl]-(S)2-amino-3-cyclohexyl-(R)1-(2-pyridinyl)propan-1-ol]	
1000 nM	CC(C)O[C@@H](NC(=O)[C@H](Cc1ccccc1)NC(=O)OCc1ccccc1)C(=O)N[C@@H](CC1CCCCC1)[C@@H](O)c1ccccn1 [N-[N-[(Phenylmethoxy)carbonyl]-L-phenylalanyl-D-2-(1-methylethoxy)glycyl]-(S)2-amino-3-cyclohexyl-(R)1-(2-pyridinyl)propan-1-ol]	
11000 nM	CC(C)COC(NC(=O)[C@H](Cc1ccccc1)NC(=O)OCc1ccccc1)C(=O)N[C@@H](CC1CCCCC1)[C@@H](O)c1nccs1 (stereo partly drawn) [N-[Phenylmethoxy)carbonyl]-L-phenylalanyl-D-2-(2-methylpropo] [N-[(Phenylmethoxy)carbonyl]-L-phenylalanyl-D 2-(2-methylpropoxy)glycyl-(1R,2S)-2-amino-3-cyclohexyl-1-(2-thiazolyl)propan-1-ol]	
